Laboratory results as given in paper PMC3125470 (Biochemistry, 2011).

Biological target: T1, MsPat (MSMEG_5458) (Mycolicibacterium smegmatis, UniProt A0R3F9)
T1 sequence (A0R3F9 1-333): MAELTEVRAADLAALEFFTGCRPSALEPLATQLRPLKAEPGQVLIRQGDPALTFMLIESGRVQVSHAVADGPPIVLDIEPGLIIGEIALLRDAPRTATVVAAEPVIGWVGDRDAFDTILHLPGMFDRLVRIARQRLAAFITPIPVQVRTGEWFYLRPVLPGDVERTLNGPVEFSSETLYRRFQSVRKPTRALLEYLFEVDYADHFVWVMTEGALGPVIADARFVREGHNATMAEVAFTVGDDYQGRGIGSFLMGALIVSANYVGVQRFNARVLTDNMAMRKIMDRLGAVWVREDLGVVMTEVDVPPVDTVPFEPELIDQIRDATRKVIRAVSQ
Assay: fluorescent labeling of ACS and time-dependent ACS inactivation
Format: biochemical
Details: 1 mM cGMP in place of cAMP; weak activator, allosteric

Nc1nc2c(ncn2[C@@H]2O[C@@H]3COP(=O)(O)O[C@H]3[C@H]2O)c(=O)[nH]1 [cGMP]
fluorescent labeling of ACS and time-dependent ACS inactivation: Much weaker labeling of ACS was observed when cAMP was replaced with cGMP
